# According to patent US9770026B2, “Substituted pyrimidine compound and uses thereof” (Shenyang Sinochem Agrochemicals R&D Co., Ltd., priority 2012, dated 2017):
# What was measured:
# wheat powdery mildew = test: protectant activity in vivo against wheat powdery mildew; conditions: Triticum aestivum, 168 h
# corn rust = test: protectant activity in vivo against corn rust; conditions: Zea mays, 168 h; for pest or weed control at 400 µg/mL: read-out: control effect against corn rust (%), 400 mg/L
# cucumber downy mildew = test: protectant activity in vivo against cucumber downy mildew; conditions: Cucumis sativus, 168 h
# carmine spider mite = test: bioactivity test against carmine spider mite, airbrush spray; assay type: in vivo; conditions: Tetranychus cinnabarinus, 72 h; for pest or weed control at 10 µg/mL: 10 mg/L; for pest or weed control at 10 µg/mL / pest or weed control at 100 µg/mL / pest or weed control at 600 µg/mL: contrastive test, read-out: Insecticidal activity against carmine spider mite (% ); for pest or weed control at 100 µg/mL: 100 mg/L; for pest or weed control at 600 µg/mL: 600 mg/L
# How it was run: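 Broadbean seedlings infested with adult mites were sprayed with compound (acetone/methanol stock diluted in 0.1% Tween 80 water) by airbrush at 0.7 kg/cm^2, 0.5 ml. Three replicates were run. Mortality was scored after 72 hrs.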
# armyworm = test: bioactivity test against armyworm, airbrush spray; assay type: in vivo; conditions: 72 h; for pest or weed control at 600 µg/mL: 600 mg/L, read-out: Insecticidal activity against armyworm (%)
# Diamond back moth = test: insecticidal activity against diamond back moth, airbrush spray; assay type: in vivo; conditions: 72 h; for pest or weed control at 10 µg/mL: 10 mg/L; for pest or weed control at 100 µg/mL: 100 mg/L; for pest or weed control at 600 µg/mL: 600 mg/L
# How it was run: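 Airbrush leaf-disc spray test: both faces of 2 cm cabbage discs received 0.5 ml of test solution at 0.7 kg/cm^2. Solutions were made in acetone:methanol (1:1) and brought to concentration with 0.1% Tween 80 in water. Ten second-instar larvae per disc, triplicates, were held at 25° C and 60˜70% R.H., with mortality recorded at 72 hrs.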
# [1] = tested on: Green peach aphids (Myzus Persicae Sulzer); test: bioactivity test against green peach aphid, airbrush foliar spray; assay type: in vivo; conditions: Myzus persicae, foliar, 48 h; for pest or weed control at 10 µg/mL: 10 mg/L; for pest or weed control at 100 µg/mL: 100 mg/L; for pest or weed control at 600 µg/mL: 600 mg/L
# How it was run: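 Aphids (15-30 per cabbage leaf disc) on moist filter paper were airbrush-sprayed at 10 psi, 0.5 mL, with compound from acetone:methanol (1:1) diluted in water with 0.1% tween 80. Held at 25±1 C, 60±5% RH; survivors counted after 48 hrs to give death rates.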
# rice blast = test: microbe, parasite or virus in culture; assay type: cell-based; conditions: Pyricularia oryzae, read-out: inhibition rate against rice blast, 25 ppm, in vitro
# [2] = contrastive test, read-out: Insecticidal activity against peach aphid (%)
structure (smiles),measurement,setting,value
COc1cc(CCNc2ncnc(C(F)F)c2Cl)ccc1Oc1ccc(Cl)cc1 [II-10583],pest or weed control at 6.25 µg/mL,"wheat powdery mildew; read-out: control effect against wheat powdery mildew (%), 6.25 mg/L, protectant activity",100%
same,pest or weed control at 25 µg/mL,"wheat powdery mildew; read-out: control effect against wheat powdery mildew (%), 25 mg/L, protectant activity",100%
same,pest or weed control at 100 µg/mL,"wheat powdery mildew; read-out: control effect against wheat powdery mildew (%), 100 mg/L, protectant activity",100%
same,pest or weed control at 400 µg/mL,"wheat powdery mildew; read-out: control effect against wheat powdery mildew (%), 400 mg/L, protectant activity",100%
same,pest or weed control at 6.25 ppm,"wheat powdery mildew; read-out: protectant activity against wheat powdery mildew in vivo, 6.25 ppm",100%
same,pest or weed control at 25 ppm,"wheat powdery mildew; read-out: protectant activity against wheat powdery mildew in vivo, 25 ppm",100%
same,pest or weed control at 100 ppm,"wheat powdery mildew; read-out: protectant activity against wheat powdery mildew in vivo, 100 ppm",100%
same,pest or weed control at 400 ppm,"wheat powdery mildew; read-out: protectant activity against wheat powdery mildew in vivo, 400 ppm",100%
same,pest or weed control at 25 ppm,"corn rust; read-out: protectant activity against corn rust in vivo, 25 ppm",80 to 99%
same,pest or weed control at 100 ppm,"corn rust; read-out: protectant activity against corn rust in vivo, 100 ppm",100%
same,pest or weed control at 400 ppm,"corn rust; read-out: protectant activity against corn rust in vivo, 400 ppm",100%
same,pest or weed control at 6.25 µg/mL,"cucumber downy mildew; read-out: control effect against cucumber downy mildew (%), 6.25 mg/L, protectant activity",95%
same,pest or weed control at 12.5 µg/mL,"cucumber downy mildew; read-out: control effect against cucumber downy mildew (%), 12.5 mg/L, protectant activity",95%
same,pest or weed control at 25 µg/mL,"cucumber downy mildew; read-out: control effect against cucumber downy mildew (%), 25 mg/L, protectant activity",95%
same,pest or weed control at 50 µg/mL,"cucumber downy mildew; read-out: control effect against cucumber downy mildew (%), 50 mg/L, protectant activity",100%
same,pest or weed control at 100 µg/mL,"cucumber downy mildew; read-out: control effect against cucumber downy mildew (%), 100 mg/L, protectant activity",100%
same,pest or weed control at 400 µg/mL,"cucumber downy mildew; read-out: control effect against cucumber downy mildew (%), 400 mg/L, protectant activity",100%
same,pest or weed control at 6.25 ppm,"cucumber downy mildew; read-out: protectant activity against cucumber downy mildew in vivo, 6.25 ppm",80 to 99%
same,pest or weed control at 12.5 ppm,"cucumber downy mildew; read-out: protectant activity against cucumber downy mildew in vivo, 12.5 ppm",80 to 99%
same,pest or weed control at 25 ppm,"cucumber downy mildew; read-out: protectant activity against cucumber downy mildew in vivo, 25 ppm",80 to 99%
same,pest or weed control at 50 ppm,"cucumber downy mildew; read-out: protectant activity against cucumber downy mildew in vivo, 50 ppm",80 to 99%
same,pest or weed control at 100 ppm,"cucumber downy mildew; read-out: protectant activity against cucumber downy mildew in vivo, 100 ppm",100%
same,pest or weed control at 400 ppm,"cucumber downy mildew; read-out: protectant activity against cucumber downy mildew in vivo, 400 ppm",100%
same,pest or weed control at 600 ppm,"carmine spider mite; 600 ppm, mortality after 72 hrs",100%
same,pest or weed control at 600 ppm,"armyworm; 600 ppm, mortality after 72 h",100%
same,pest or weed control at 600 ppm,"Diamond back moth; 600 ppm, mortality after 72 hrs, read-out: control (test results against diamond back moth)",100%
same,pest or weed control at 10 µg/mL,[1]; [2],100%
same,pest or weed control at 100 µg/mL,[1]; [2],100%
same,pest or weed control at 600 µg/mL,[1]; [2],100%
same,pest or weed control at 10 ppm,"[1]; 10 ppm, death rate after 48 hrs",100%
same,pest or weed control at 100 ppm,"[1]; 100 ppm, death rate after 48 hrs",100%
same,pest or weed control at 600 ppm,"[1]; 600 ppm, death rate after 48 hrs",100%
same,inhibition at 25 ppm,rice blast,80 to 99%
"CCc1ncnc(NC(C)c2ccc(Oc3ncc(C(F)(F)F)cc3Cl)cc2)c1Cl (stereo not drawn) [CK39, reference compound]",pest or weed control at 0.4 µg/mL,"corn rust; read-out: control effect against corn rust (%), 0.4 mg/L, protectant activity",0%
same,pest or weed control at 1.6 µg/mL,"corn rust; read-out: control effect against corn rust (%), 1.6 mg/L, protectant activity",10%
same,pest or weed control at 6.25 µg/mL,"corn rust; read-out: control effect against corn rust (%), 6.25 mg/L, protectant activity",50%
same,pest or weed control at 25 µg/mL,"corn rust; read-out: control effect against corn rust (%), 25 mg/L, protectant activity",80%
same,pest or weed control at 100 µg/mL,"corn rust; read-out: control effect against corn rust (%), 100 mg/L, protectant activity",100%
same,pest or weed control at 400 µg/mL,corn rust; protectant activity,100%
same,pest or weed control at 10 µg/mL,carmine spider mite,16%
same,pest or weed control at 100 µg/mL,carmine spider mite,37%
same,pest or weed control at 600 µg/mL,carmine spider mite,100%
same,pest or weed control at 600 µg/mL,armyworm,0%
same,pest or weed control at 10 µg/mL,Diamond back moth,0%
same,pest or weed control at 100 µg/mL,Diamond back moth,20%
same,pest or weed control at 600 µg/mL,Diamond back moth,80%
same,pest or weed control at 5 µg/mL,"[1]; 5 mg/L, contrastive test, read-out: Insecticidal activity against peach aphid (%)",0%
same,pest or weed control at 10 µg/mL,[1]; [2],2%
same,pest or weed control at 100 µg/mL,[1]; [2],86%
same,pest or weed control at 600 µg/mL,[1]; [2],100%
same,inhibition at 25 ppm,rice blast,0%
"CCc1ncnc(NCc2ccc(Oc3ncc(C(F)(F)F)cc3Cl)cc2)c1Cl [CK38, reference compound]",pest or weed control at 400 µg/mL,corn rust; protectant activity,0%
same,pest or weed control at 10 µg/mL,carmine spider mite,14%
same,pest or weed control at 100 µg/mL,carmine spider mite,37%
same,pest or weed control at 600 µg/mL,carmine spider mite,99%
same,pest or weed control at 600 µg/mL,armyworm,0%
same,pest or weed control at 10 µg/mL,Diamond back moth,5%
same,pest or weed control at 100 µg/mL,Diamond back moth,21%
same,pest or weed control at 600 µg/mL,Diamond back moth,100%
same,pest or weed control at 10 µg/mL,[1]; [2],0%
same,pest or weed control at 100 µg/mL,[1]; [2],24%
same,pest or weed control at 600 µg/mL,[1]; [2],100%
same,inhibition at 25 ppm,rice blast,0%
